# Experiments:
# Assay in all cases: KINOMEscan competition binding
# Settings in all cases: compound 10.0 µM
# STK11 (human) = STK11 (human) (UniProt Q15831)
# FYN (human) = FYN (human) (UniProt P06241)
# CLK4 (human) = CLK4 (human) (UniProt Q9HAZ1)
# MST1R (human) = MST1R (human) (UniProt Q04912)
# GSK3A (human) = GSK3A (human) (UniProt P49840)
# MAP3K15 (human) = MAP3K15 (human) (UniProt Q6ZN16)
# MAP3K2 (human) = MAP3K2 (human) (UniProt Q9Y2U5)
# RPS6KA5 KD2 (human) = RPS6KA5 KD2 (human) (UniProt O75582)
# CDKL5 (human) = CDKL5 (human) (UniProt O76039)
# MLTK (human) = MLTK (human) (UniProt Q9NYL2)
# Sequence of MLTK (human) (Q9NYL2 whole entry, looked up): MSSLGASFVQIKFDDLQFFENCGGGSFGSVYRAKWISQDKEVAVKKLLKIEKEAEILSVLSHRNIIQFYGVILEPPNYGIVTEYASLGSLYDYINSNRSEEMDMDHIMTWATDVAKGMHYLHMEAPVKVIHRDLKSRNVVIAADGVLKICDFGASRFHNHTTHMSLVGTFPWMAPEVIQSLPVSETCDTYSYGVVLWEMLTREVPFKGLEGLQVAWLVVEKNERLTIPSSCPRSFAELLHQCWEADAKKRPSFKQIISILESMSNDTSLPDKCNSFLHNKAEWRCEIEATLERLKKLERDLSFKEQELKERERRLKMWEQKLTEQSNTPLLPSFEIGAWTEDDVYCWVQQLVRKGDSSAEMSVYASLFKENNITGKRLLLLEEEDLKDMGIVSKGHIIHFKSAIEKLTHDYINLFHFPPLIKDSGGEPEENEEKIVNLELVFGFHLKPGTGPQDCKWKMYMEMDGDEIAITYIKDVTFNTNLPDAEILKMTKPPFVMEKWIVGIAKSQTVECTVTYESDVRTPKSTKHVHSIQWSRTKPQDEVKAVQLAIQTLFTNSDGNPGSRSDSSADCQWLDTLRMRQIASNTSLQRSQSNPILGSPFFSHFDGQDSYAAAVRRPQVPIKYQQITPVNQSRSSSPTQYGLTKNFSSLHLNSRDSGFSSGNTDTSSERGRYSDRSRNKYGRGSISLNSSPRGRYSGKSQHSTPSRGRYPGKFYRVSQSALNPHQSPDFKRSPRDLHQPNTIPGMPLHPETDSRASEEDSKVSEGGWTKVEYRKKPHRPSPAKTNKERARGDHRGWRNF
# CHUK (human) = CHUK (human) (UniProt O15111)
# PRKD2 (human) = PRKD2 (human) (UniProt Q9BZL6)
# RPS6KA2 KD2 (human) = RPS6KA2 KD2 (human) (UniProt Q15349)
# CDK9 (human) = CDK9 (human) (UniProt P50750)
# Sequence of CDK9 (human) (P50750 whole entry, looked up): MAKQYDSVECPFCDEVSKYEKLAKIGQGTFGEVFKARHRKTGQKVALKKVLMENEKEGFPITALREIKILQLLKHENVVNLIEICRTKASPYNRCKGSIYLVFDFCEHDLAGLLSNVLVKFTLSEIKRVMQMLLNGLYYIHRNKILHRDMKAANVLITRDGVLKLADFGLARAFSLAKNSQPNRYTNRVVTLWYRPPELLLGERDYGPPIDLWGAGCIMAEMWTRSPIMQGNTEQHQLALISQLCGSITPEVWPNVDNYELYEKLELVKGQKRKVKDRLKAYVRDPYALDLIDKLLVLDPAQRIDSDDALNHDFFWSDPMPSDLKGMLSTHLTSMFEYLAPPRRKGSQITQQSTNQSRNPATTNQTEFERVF
# CDK2 (human) = CDK2 (human) (UniProt P24941)
# [1] = target: JAK3 JH1 catalytic (human) (UniProt P52333)
# PRKCD (human) = PRKCD (human) (UniProt Q05655)
# AAK1 (human) = AAK1 (human) (UniProt Q2M2I8)
# RIPK2 (human) = RIPK2 (human) (UniProt O43353)
# CAMK2D (human) = CAMK2D (human) (UniProt Q13557)
# MAPK14 (human) = MAPK14 (human) (UniProt Q16539)
# Sequence of MAPK14 (human) (Q16539 whole entry, looked up): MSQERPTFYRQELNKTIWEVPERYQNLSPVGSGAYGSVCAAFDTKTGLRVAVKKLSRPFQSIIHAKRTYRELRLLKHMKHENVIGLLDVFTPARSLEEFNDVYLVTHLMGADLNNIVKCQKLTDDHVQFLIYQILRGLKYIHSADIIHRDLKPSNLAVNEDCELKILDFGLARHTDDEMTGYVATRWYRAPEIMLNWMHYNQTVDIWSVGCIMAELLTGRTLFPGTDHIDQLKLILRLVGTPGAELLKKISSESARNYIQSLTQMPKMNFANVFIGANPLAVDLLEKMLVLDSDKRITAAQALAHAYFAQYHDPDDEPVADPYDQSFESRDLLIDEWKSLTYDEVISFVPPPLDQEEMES
# MARK4 (human) = MARK4 (human) (UniProt Q96L34)
# PIP4K2C (human) = PIP4K2C (human) (UniProt Q8TBX8)
# CSNK1D (human) = CSNK1D (human) (UniProt P48730)
# FGR (human) = FGR (human) (UniProt P09769)
# CAMK1D (human) = CAMK1D (human) (UniProt Q8IU85)
# PKN3 (M.tuberculosis) = PKN3 (M.tuberculosis) (UniProt Q6P5Z2)
# EPHA6 (human) = EPHA6 (human) (UniProt Q9UF33)
# [2] = target: JAK1 JH2 pseudokinase (human) (UniProt P23458)
# STK16 (human) = STK16 (human) (UniProt O75716)
# Sequence of STK16 (human) (O75716 whole entry, looked up): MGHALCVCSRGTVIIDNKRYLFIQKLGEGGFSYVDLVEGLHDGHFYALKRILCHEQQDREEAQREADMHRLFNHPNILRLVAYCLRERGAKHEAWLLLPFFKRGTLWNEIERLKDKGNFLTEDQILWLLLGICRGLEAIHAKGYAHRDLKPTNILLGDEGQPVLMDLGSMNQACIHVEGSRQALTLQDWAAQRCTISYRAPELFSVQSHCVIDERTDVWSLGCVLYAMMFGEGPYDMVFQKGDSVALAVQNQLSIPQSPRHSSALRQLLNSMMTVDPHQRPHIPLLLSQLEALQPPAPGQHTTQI
# MERTK (human) = MERTK (human) (UniProt Q12866)
# LIMK1 (human) = LIMK1 (human) (UniProt P53667)
# [3] = test system: KIT (human), P10721 [L576P]
# Sequence of KIT (human), P10721 [L576P] (P10721 whole entry L576P, looked up): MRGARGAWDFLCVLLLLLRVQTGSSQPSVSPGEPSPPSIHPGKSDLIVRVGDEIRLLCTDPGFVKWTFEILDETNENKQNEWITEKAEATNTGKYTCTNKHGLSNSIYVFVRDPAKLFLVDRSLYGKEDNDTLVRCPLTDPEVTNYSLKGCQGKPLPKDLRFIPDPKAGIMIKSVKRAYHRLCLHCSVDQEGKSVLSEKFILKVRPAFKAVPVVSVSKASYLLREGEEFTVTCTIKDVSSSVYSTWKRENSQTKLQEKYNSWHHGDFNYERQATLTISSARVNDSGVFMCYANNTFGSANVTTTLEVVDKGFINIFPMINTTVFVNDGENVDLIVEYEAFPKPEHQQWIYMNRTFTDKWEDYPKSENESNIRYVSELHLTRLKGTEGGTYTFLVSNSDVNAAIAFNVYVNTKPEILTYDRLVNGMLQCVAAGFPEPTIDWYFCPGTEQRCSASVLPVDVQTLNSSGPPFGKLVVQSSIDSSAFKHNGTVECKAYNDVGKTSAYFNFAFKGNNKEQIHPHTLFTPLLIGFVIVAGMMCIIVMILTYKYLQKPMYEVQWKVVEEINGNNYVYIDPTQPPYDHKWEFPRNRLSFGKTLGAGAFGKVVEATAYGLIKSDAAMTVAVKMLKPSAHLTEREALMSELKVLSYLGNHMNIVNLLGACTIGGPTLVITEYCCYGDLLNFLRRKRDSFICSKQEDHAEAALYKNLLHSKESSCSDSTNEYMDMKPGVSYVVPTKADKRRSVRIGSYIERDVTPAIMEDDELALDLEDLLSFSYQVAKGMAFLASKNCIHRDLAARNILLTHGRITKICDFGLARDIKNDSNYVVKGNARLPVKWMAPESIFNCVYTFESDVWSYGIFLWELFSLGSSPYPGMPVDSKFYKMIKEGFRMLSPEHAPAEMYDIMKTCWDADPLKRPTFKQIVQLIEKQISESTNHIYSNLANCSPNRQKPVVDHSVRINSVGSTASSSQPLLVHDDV
# ICK (human) = ICK (human) (UniProt Q9UPZ9)
# PTK2B (human) = PTK2B (human) (UniProt Q14289)
# GRK1 (human) = GRK1 (human) (UniProt Q15835)
# TTK (human) = TTK (human) (UniProt P33981)
# Sequence of TTK (human) (P33981 whole entry, looked up): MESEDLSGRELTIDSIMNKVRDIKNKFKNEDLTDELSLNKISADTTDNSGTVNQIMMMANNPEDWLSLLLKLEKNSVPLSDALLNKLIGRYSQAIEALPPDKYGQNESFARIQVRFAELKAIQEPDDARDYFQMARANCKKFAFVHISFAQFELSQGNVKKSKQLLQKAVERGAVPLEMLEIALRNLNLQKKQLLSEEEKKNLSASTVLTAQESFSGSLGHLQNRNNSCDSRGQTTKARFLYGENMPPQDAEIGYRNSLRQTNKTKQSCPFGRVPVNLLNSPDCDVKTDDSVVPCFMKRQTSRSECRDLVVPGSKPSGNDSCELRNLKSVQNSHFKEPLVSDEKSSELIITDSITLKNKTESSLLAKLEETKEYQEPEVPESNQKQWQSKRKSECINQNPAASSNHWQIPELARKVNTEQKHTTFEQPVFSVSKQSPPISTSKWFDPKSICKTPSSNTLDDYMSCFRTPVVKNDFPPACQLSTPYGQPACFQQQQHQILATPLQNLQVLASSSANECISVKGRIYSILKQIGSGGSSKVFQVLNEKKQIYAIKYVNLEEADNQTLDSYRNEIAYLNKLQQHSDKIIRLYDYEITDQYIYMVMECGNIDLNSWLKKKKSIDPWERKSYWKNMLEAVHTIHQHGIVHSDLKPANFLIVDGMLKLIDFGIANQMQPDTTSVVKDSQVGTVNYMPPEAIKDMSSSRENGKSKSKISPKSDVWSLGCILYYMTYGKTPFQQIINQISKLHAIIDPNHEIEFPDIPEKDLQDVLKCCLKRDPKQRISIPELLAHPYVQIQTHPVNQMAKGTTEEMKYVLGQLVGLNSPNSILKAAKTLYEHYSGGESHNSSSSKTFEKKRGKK
# PIP5K1C (human) = PIP5K1C (human) (UniProt O60331)
# Sequence of PIP5K1C (human) (O60331 whole entry, looked up): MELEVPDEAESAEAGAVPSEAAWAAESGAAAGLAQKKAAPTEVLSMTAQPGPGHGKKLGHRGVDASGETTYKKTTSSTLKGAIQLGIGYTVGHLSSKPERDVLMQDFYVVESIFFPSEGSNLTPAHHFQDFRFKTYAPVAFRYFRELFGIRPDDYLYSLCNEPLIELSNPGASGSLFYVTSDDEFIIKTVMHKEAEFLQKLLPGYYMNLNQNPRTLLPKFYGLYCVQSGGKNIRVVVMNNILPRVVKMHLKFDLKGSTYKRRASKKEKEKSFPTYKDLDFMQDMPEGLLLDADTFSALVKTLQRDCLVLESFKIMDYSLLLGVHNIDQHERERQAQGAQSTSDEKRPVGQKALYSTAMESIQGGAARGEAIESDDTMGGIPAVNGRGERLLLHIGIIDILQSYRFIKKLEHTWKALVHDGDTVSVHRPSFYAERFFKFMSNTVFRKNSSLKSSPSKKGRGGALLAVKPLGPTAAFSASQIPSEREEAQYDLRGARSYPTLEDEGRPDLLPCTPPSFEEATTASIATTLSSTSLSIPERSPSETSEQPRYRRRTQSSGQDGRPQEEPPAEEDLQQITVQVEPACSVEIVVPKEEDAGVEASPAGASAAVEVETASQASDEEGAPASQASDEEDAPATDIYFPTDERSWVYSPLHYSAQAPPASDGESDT
# DAPK3 (human) = DAPK3 (human) (UniProt O43293)
# PAK1 (human) = PAK1 (human) (UniProt Q13153)
# Sequence of CLK4 (human) (Q9HAZ1 whole entry, looked up): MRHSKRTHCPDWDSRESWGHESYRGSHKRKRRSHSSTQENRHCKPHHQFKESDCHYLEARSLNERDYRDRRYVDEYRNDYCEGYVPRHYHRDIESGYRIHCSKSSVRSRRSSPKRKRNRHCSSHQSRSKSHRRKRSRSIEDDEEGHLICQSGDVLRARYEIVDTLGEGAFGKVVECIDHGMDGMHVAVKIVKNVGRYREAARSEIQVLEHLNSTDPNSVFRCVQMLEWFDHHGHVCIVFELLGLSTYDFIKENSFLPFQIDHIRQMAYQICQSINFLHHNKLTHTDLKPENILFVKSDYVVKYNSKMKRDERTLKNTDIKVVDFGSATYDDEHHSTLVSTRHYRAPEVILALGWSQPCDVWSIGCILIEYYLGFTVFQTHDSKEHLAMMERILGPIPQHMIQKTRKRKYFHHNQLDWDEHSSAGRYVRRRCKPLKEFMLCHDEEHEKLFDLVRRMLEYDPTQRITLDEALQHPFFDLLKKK
structure (smiles),measurement,setting,value
CCN1CCN(C(=O)Cc2ccc(Nc3ncc(F)c(Nc4ccc(C(=O)Nc5ccccc5Cl)cc4)n3)cc2)CC1,"kinase still bound, per cent of control",STK11 (human),12%
same,"kinase still bound, per cent of control",FYN (human),41%
same,"kinase still bound, per cent of control",CLK4 (human),28%
same,"kinase still bound, per cent of control",MST1R (human),100%
same,"kinase still bound, per cent of control",GSK3A (human),88%
same,"kinase still bound, per cent of control",MAP3K15 (human),100%
same,"kinase still bound, per cent of control",MAP3K2 (human),31%
same,"kinase still bound, per cent of control",RPS6KA5 KD2 (human),66%
same,"kinase still bound, per cent of control",CDKL5 (human),100%
same,"kinase still bound, per cent of control",MLTK (human),2.9%
same,"kinase still bound, per cent of control",CHUK (human),84%
same,"kinase still bound, per cent of control",PRKD2 (human),100%
same,"kinase still bound, per cent of control",RPS6KA2 KD2 (human),57%
same,"kinase still bound, per cent of control",CDK9 (human),73%
same,"kinase still bound, per cent of control",CDK2 (human),80%
same,"kinase still bound, per cent of control",[1],3.7%
same,"kinase still bound, per cent of control",PRKCD (human),60%
same,"kinase still bound, per cent of control",AAK1 (human),7%
same,"kinase still bound, per cent of control",RIPK2 (human),19%
same,"kinase still bound, per cent of control",CAMK2D (human),71%
same,"kinase still bound, per cent of control",MAPK14 (human),97%
same,"kinase still bound, per cent of control",MARK4 (human),17%
same,"kinase still bound, per cent of control",PIP4K2C (human),38%
same,"kinase still bound, per cent of control",CSNK1D (human),100%
same,"kinase still bound, per cent of control",FGR (human),43%
same,"kinase still bound, per cent of control",CAMK1D (human),5.6%
same,"kinase still bound, per cent of control",PKN3 (M.tuberculosis),5%
same,"kinase still bound, per cent of control",EPHA6 (human),46%
same,"kinase still bound, per cent of control",[2],3%
same,"kinase still bound, per cent of control",STK16 (human),1.6%
same,"kinase still bound, per cent of control",MERTK (human),2%
same,"kinase still bound, per cent of control",LIMK1 (human),9.8%
same,"kinase still bound, per cent of control",[3],3.2%
same,"kinase still bound, per cent of control",ICK (human),100%
same,"kinase still bound, per cent of control",PTK2B (human),33%
same,"kinase still bound, per cent of control",GRK1 (human),100%
same,"kinase still bound, per cent of control",TTK (human),18%
same,"kinase still bound, per cent of control",PIP5K1C (human),77%
same,"kinase still bound, per cent of control",DAPK3 (human),5.2%
same,"kinase still bound, per cent of control",PAK1 (human),53%
O=C1NC(=O)/C(=C/c2ccc3nccc(-c4ccncc4)c3c2)S1,"kinase still bound, per cent of control",STK11 (human),12%
same,"kinase still bound, per cent of control",FYN (human),94%
same,"kinase still bound, per cent of control",CLK4 (human),0.2%
same,"kinase still bound, per cent of control",MST1R (human),100%
same,"kinase still bound, per cent of control",GSK3A (human),71%
same,"kinase still bound, per cent of control",MAP3K15 (human),100%
same,"kinase still bound, per cent of control",MAP3K2 (human),90%
same,"kinase still bound, per cent of control",RPS6KA5 KD2 (human),4.6%
same,"kinase still bound, per cent of control",CDKL5 (human),76%
same,"kinase still bound, per cent of control",MLTK (human),16%
same,"kinase still bound, per cent of control",CHUK (human),44%
same,"kinase still bound, per cent of control",PRKD2 (human),90%
same,"kinase still bound, per cent of control",RPS6KA2 KD2 (human),12%
same,"kinase still bound, per cent of control",CDK9 (human),16%
same,"kinase still bound, per cent of control",CDK2 (human),76%
same,"kinase still bound, per cent of control",[1],0%
same,"kinase still bound, per cent of control",PRKCD (human),20%
same,"kinase still bound, per cent of control",AAK1 (human),1%
same,"kinase still bound, per cent of control",RIPK2 (human),30%
same,"kinase still bound, per cent of control",CAMK2D (human),10%
same,"kinase still bound, per cent of control",MAPK14 (human),100%
same,"kinase still bound, per cent of control",MARK4 (human),89%
same,"kinase still bound, per cent of control",PIP4K2C (human),3.2%
same,"kinase still bound, per cent of control",CSNK1D (human),3.6%
same,"kinase still bound, per cent of control",FGR (human),69%
same,"kinase still bound, per cent of control",CAMK1D (human),57%
same,"kinase still bound, per cent of control",PKN3 (M.tuberculosis),36%
same,"kinase still bound, per cent of control",EPHA6 (human),83%
same,"kinase still bound, per cent of control",[2],57%
same,"kinase still bound, per cent of control",STK16 (human),4.9%
same,"kinase still bound, per cent of control",MERTK (human),14%
same,"kinase still bound, per cent of control",LIMK1 (human),88%
same,"kinase still bound, per cent of control",[3],34%
same,"kinase still bound, per cent of control",ICK (human),46%
same,"kinase still bound, per cent of control",PTK2B (human),86%
same,"kinase still bound, per cent of control",GRK1 (human),22%
same,"kinase still bound, per cent of control",TTK (human),19%
same,"kinase still bound, per cent of control",PIP5K1C (human),28%
same,"kinase still bound, per cent of control",DAPK3 (human),0.6%
same,"kinase still bound, per cent of control",PAK1 (human),86%
